According to the NIST ThermoML archive (doi:10.1016/j.fluid.2010.05.018):
± gives the expanded uncertainty stated by the source.

Settings: 298.15 K; 101.33 kPa; Liquid; Vibrating tube method

| SMILES | mass density |
| --- | --- |
| FC(F)(F)C(F)(F)C(F)(F)C(F)(F)C(F)(F)C(F)(F)C(F)(F)C(F)(F)F [octadecafluorooctane] | 1754.28 ± 0.44 kg/m3 |
| FC(F)(F)C(F)(F)C(F)(F)C(F)(F)C(F)(F)C(F)(F)F [perfluorohexane] | 1670.07 ± 0.32 kg/m3 |
